According to patent EP1801111A1, “Novel polymorph forms of olmesartan medoxomil” (LEK Pharmaceuticals d.d., priority 2005, dated 2007):

Key:
[1] = 1 n hcl
[2] = Hygroscopicity: mass change after exposing to air moisture; type: physicochemical; conditions: for increase of the mass of the sample: after exposing to air moisture for 6 days

solubility in 1 N HCI [1] | increase of the mass of the sample ([2]; hemihydrate) | hygroscopicity (in words) ([2]; compared with the prior art substance) | increase of the mass of the sample [2] | SMILES
up to 7 mg/ml |  |  |  | CCCc1nc(C(C)(C)O)c(C(=O)OCc2oc(=O)oc2C)n1Cc1ccc(-c2ccccc2-c2nnn[nH]2)cc1 [partially crystalline or amorphous, olmesartan medoxomil]
around 3 mg/ml | did not increase | not hydroscopic |  | CCCc1nc(C(C)(C)O)c(C(=O)OCc2oc(=O)oc2C)n1Cc1ccc(-c2ccccc2-c2nnn[nH]2)cc1 [olmesartan medoxomil hemihydrate]
approximately 2 mg |  |  | 0,61% | CCCc1nc(C(C)(C)O)c(C(=O)OCc2oc(=O)oc2C)n1Cc1ccc(-c2ccccc2-c2nnn[nH]2)cc1 [prior art substance, olmesartan medoxomil]
